The text below walks through data of patent US9573953B2, “Heteroaromatic compounds as PI3 kinase modulators and methods of use” (CALITOR SCIENCES, LLC, priority 2013, dated 2017).

Like-named read-outs stand apart in the source and are kept apart here.

One series concerns the target T1, PI3K p110β/p85α (h) (Homo sapiens, UniProt P42338).
T1 construct: purchased Millipore UK Ltd (assays run there as a service)
As to the kind of experiment: PI3K p110β/p85α (h) non-radioactive (HTRF) assay. In kind it is biochemical. The protocol:
PI3K p110β/p85α (h) [Non-Radioactive Assay]
(§1) PI3K (p110β/p85α) (h) is incubated in assay buffer containing 10 μM phosphatidylinositol-4,5-bisphosphate and MgATP (concentration as required). The reaction is initiated by the addition of the MgATP mix. After incubation for 30 minutes at room temperature, the reaction is stopped by the addition of stop solution containing EDTA and biotinylated phosphatidylinositol-3,4,5-trisphosphate. Finally, detection buffer is added, which contains europium-labelled anti-GST monoclonal antibody, GST-tagged GRP1 PH domain and streptavidin-allophycocyanin. The plate is then read in time-resolved fluorescence mode and the homogenous time-resolved fluorescence (HTRF) signal is determined according to the formula HTRF=10000×(Em665 nm/Em620 nm).
(§2) The kinase assays described herein were performed at Millipore UK Ltd, Dundee Technology Park, Dundee DD2 1SW, UK.
A general note: Time-resolved FRET reads energy transfer from a long-lived donor to a nearby acceptor.

For the next series, the target named is T2, PI3K p110α/p85α (h) (Homo sapiens, UniProt P42336).
T2 construct: purchased Millipore UK Ltd (assays run there as a service)
T2 sequence (P42336 whole entry): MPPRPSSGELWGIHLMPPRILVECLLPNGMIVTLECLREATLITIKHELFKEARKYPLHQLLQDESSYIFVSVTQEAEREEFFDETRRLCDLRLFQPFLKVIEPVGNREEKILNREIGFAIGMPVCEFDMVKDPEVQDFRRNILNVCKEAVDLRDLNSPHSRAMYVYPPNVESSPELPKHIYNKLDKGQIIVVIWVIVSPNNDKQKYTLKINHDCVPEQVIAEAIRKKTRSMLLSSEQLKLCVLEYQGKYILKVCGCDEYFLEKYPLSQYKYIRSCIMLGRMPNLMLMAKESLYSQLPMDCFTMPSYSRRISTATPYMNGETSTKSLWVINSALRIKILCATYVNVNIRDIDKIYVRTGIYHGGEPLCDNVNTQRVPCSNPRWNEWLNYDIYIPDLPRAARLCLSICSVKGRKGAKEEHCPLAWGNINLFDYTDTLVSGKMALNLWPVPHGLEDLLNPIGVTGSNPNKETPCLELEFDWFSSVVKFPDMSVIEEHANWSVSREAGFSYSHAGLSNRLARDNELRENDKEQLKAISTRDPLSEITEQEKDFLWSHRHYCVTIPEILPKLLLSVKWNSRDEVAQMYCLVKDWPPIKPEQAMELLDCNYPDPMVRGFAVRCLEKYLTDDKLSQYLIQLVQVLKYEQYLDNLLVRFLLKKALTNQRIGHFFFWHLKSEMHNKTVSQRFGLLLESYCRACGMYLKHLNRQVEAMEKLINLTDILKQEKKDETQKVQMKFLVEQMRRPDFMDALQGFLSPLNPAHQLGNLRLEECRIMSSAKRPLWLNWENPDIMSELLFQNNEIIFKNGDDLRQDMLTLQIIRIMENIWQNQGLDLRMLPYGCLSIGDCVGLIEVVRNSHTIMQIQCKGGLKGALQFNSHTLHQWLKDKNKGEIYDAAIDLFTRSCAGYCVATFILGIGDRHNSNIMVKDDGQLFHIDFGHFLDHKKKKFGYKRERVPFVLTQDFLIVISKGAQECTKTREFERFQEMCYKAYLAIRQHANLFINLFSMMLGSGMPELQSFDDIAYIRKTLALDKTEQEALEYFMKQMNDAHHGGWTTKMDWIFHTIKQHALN
T2 sequence (P27986 whole entry partner): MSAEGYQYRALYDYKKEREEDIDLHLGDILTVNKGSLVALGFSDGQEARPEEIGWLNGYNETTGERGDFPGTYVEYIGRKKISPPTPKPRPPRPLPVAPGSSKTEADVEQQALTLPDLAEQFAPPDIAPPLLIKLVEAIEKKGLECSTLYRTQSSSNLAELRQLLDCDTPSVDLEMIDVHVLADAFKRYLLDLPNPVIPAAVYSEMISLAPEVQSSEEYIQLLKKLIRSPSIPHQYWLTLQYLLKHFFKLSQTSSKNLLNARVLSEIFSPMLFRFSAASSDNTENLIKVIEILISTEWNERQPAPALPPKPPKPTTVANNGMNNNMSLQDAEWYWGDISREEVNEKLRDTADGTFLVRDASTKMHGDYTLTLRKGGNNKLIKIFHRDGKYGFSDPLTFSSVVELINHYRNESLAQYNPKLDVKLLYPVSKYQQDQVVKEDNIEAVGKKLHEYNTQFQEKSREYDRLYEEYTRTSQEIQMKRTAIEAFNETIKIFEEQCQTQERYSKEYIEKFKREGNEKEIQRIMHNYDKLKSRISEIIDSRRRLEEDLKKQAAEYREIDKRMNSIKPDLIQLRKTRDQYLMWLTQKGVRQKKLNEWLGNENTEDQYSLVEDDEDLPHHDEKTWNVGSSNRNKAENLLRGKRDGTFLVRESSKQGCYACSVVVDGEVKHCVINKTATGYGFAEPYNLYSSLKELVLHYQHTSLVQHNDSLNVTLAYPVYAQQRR
As to the kind of experiment: PI3K p110α/p85α (h) non-radioactive (HTRF) assay. In kind it is biochemical. The protocol:
PI3K p110α/p85α (h) [Non-Radioactive Assay]
as §1, with “p110α/p85α” for “(p110β/p85α)”, “phosphatidylinositol 4,5-bisphosphate” for “phosphatidylinositol-4,5-bisphosphate”, “ATP solution.” for “MgATP mix.”, “streptavidin allophycocyanin.” for “streptavidin-allophycocyanin.”
as §2

A further series concerns the target T3, PI3K (p120γ) (h) (Homo sapiens, UniProt P48736).
T3 construct: purchased Millipore UK Ltd (assays run there as a service)
As to the kind of experiment: PI3K (p120γ) (h) non-radioactive (HTRF) assay. In kind it is biochemical. On the procedure:
PI3K (p120γ) (h) [Non-Radioactive Assay]
as §1, with “(p120γ)” for “(p110β/p85α)”
as §2

Another series concerns the target T4, PI3K (p110δ/p85α) (h) (Homo sapiens, UniProt O00329).
T4 construct: purchased Millipore UK Ltd (assays run there as a service)
As to the kind of experiment: PI3K (p110δ/p85α) (h) non-radioactive (HTRF) assay. Type of series: biochemical. The protocol:
PI3K (p110δ/p85α) (h) [Non-Radioactive Assay]
as §1, with “(p110δ/p85α)” for “(p110β/p85α)”
as §2

The nature of series [1]: Compound stability in human liver microsomes. The note with it: for half-life at 5 μM / CLint scaled at 5 μM: pH 7.4; for CLint scaled at 5 μM: human liver microsomes, in vivo CLint extrapolated. In kind it is in vitro ADME. The protocol: (§3) Human or rat liver microsomes incubations were conducted in duplicate in polypropylene tubes. The typical incubation mixtures consisted of human or rat liver microsomes (0.5 mg protein/mL), compounds of interest (5 μM) and NADPH (1.0 mM) in a total volume of 200 μL potassium phosphate buffer (PBS, 100 mM, pH=7.4). Compounds were dissolved in DMSO and diluted with PBS such that the final concentration of DMSO was 0.05%. The enzymatic reactions were commenced with the addition of protein after a 3-min preincubation and incubated in a water bath open to the air at 37° C. Reactions were terminated at various time points (0, 5, 10, 15, 30, 60 min) by adding equal volume of ice-cold acetonitrile. The samples were stored at −80° C. until LC/MS/MS assays.
(§4) The concentrations of compounds in the incubation mixtures of human or rat liver microsomes were determined by a LC/MS/MS method. The ranges of the linearity in the concentration range were determined for each tested compounds.
(§5) A parallel incubation was performed using denatured microsomes as the negative control, and reactions were terminated at various time points (0, 15, 60 min) after incubation at 37° C.
(§6) Dextromethorphan (70 μM) was selected as the positive control, and reactions were terminated at various time points (0, 5, 10, 15, 30, 60 min) after incubation at 37° C. Both positive and negative control samples were included in each assay to ensure the integrity of the microsomal incubation system.
(§7) The concentrations of compounds in human or rat liver microsome incubations were plotted as a percentage of the relevant zero time point control for each reaction. The in vivo CLint were extrapolated (ref.: Naritomi Y, Terashita S, Kimura S, Suzuki A, Kagayama A, Sugiyama Y. “Prediction of human hepatic clearance from in vivo animal experiments and in vitro metabolic studies with liver microsomes from animals and humans”, Drug Metabolism and Disposition, 2001, 29, 1316-1324).

A further series addresses T5, mTOR (h) (Homo sapiens, UniProt P42345).
T5 construct: purchased Millipore UK Ltd (assays run there as a service)
As to the kind of experiment: mTOR (h) kinase assay. In kind it is biochemical. On the procedure: mTOR (h) is incubated with 50 mM HEPES pH 7.5, 1 mM EDTA, 0.01% TWEEN®20, 2 mg/mL substrate, 3 mM Manganese Chloride and [γ-^33P-ATP] (specific activity approx. 500 cpm/pmol, concentration as required). The reaction is initiated by the addition of the MnATP mix. After incubation for 40 minutes at room temperature, the reaction is stopped by the addition of 3% phosphoric acid solution. Aliquote of the reaction (10 μL) is then spotted onto a P30 filtermat and washed three times for 5 minutes in 75 mM phosphoric acid and once in methanol prior to drying and scintillation counting.
as §2

Series [2] can be described thus: Pharmacokinetic profiles in rats. In kind it is in vivo. The note with it: for F: oral dose generally 5 or 10 mg/kg; for Cl/F / AUC(0-t) / half-life / Vd: iv dosing; for AUC(0-t) / half-life / Vd: rat, plasma; for Vd: read-out: Vss. On the procedure:
The compounds disclosed herein are assessed in pharmacokinetic studies in mice, rats, dogs or monkeys. The compounds are administered as a water solution, 2% HPMC+1% TWEEN®80 in water solution, 5% DMSO+5% solutol in saline, 4% MC suspension or capsule. For the intravenous administration, the animals are generally given at 1 or 2 mg/kg dose. For the oral (p.o.) dosing, mice and rats are generally given 5 or 10 mg/kg dose, and dogs and monkeys are generally given 10 mg/kg dose. The blood samples (0.3 mL) are drawn at 0.25, 0.5, 1.0, 2.0, 3.0, 4.0, 6.0, 8.0, 12 and 24 h time points or 0.083, 0.25, 0.5, 1.0, 2.0, 4.0, 6.0, 8.0 and 24 h time points and centrifuged at 3,000 or 4000 rpm for 2 to 10 min. The plasma solutions are collected and stored at −20° C. or −70° C. until analyzed by LC/MS/MS as described above.

A short description of series [3]: Compound stability in rat liver microsomes. In kind it is in vitro ADME. The following applies: for half-life at 5 μM / CLint scaled at 5 μM: pH 7.4; for half-life at 5 μM / T1/2: rat liver microsomes 0.5 mg protein/mL, compound 5 μM, NADPH, 37° C.; for CLint scaled at 5 μM: rat liver microsomes, in vivo CLint extrapolated. The protocol: as §3, §4, §5, §6, §7

Where [4] appears, read: human liver microsomes 0.5 mg protein/mL, compound 5 μM, NADPH, 37° C.

T3 sequence (P48736 whole entry): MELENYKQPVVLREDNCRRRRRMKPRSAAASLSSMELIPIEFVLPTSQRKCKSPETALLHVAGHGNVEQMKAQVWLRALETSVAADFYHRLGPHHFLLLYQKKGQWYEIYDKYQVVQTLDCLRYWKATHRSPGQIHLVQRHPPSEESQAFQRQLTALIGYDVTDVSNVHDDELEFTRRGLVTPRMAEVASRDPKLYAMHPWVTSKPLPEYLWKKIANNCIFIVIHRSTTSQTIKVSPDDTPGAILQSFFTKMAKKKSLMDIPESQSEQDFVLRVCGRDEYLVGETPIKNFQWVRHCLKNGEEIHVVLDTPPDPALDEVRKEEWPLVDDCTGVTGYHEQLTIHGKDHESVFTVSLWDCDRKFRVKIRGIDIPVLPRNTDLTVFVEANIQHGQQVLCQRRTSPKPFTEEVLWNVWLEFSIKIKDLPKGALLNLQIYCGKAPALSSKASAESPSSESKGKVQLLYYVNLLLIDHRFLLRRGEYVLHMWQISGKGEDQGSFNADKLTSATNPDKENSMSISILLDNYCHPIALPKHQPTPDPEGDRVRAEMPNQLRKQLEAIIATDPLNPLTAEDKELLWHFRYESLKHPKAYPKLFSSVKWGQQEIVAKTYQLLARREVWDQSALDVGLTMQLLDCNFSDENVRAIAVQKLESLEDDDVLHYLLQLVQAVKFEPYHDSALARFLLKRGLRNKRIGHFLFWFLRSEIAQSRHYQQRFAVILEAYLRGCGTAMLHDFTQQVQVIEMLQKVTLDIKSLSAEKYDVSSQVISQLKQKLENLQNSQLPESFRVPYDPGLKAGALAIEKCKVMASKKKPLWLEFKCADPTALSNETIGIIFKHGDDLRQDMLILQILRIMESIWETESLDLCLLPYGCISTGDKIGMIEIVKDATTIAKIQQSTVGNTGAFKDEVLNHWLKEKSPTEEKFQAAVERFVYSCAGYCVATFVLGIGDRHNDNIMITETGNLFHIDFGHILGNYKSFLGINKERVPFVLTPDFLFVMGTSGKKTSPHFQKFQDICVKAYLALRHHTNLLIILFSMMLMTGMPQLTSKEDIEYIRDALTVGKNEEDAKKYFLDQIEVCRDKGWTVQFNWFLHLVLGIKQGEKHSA
T1 sequence (P42338 whole entry): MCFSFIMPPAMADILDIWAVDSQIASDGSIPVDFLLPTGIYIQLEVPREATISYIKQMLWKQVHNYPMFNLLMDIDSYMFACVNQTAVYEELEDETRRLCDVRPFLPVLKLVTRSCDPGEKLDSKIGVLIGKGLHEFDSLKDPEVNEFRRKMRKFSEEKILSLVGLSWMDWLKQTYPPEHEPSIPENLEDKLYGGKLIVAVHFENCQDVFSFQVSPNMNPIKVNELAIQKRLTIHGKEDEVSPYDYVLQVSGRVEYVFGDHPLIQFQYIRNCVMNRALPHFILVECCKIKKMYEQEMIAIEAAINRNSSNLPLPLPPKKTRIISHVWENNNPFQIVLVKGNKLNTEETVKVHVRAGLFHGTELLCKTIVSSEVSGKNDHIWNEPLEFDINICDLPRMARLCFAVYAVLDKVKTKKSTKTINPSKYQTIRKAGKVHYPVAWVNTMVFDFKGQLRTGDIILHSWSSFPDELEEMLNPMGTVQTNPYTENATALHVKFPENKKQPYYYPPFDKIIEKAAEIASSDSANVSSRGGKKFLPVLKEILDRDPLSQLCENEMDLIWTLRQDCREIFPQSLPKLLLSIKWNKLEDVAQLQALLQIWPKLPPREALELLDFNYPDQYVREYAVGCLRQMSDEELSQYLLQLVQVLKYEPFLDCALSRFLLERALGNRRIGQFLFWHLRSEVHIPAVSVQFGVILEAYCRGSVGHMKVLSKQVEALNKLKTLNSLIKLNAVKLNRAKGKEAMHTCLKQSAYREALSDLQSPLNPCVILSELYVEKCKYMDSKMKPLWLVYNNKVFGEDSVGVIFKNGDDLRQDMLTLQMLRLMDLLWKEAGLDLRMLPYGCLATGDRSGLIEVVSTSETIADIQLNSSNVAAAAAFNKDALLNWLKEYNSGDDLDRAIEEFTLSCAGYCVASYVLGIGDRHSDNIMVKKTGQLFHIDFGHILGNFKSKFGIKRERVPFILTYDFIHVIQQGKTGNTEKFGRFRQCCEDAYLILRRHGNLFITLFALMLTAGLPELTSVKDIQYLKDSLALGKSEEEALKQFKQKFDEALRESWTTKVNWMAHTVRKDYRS
T1 sequence (P27986 whole entry partner): as the sequence (P27986 whole entry partner) above
T4 sequence (O00329 whole entry): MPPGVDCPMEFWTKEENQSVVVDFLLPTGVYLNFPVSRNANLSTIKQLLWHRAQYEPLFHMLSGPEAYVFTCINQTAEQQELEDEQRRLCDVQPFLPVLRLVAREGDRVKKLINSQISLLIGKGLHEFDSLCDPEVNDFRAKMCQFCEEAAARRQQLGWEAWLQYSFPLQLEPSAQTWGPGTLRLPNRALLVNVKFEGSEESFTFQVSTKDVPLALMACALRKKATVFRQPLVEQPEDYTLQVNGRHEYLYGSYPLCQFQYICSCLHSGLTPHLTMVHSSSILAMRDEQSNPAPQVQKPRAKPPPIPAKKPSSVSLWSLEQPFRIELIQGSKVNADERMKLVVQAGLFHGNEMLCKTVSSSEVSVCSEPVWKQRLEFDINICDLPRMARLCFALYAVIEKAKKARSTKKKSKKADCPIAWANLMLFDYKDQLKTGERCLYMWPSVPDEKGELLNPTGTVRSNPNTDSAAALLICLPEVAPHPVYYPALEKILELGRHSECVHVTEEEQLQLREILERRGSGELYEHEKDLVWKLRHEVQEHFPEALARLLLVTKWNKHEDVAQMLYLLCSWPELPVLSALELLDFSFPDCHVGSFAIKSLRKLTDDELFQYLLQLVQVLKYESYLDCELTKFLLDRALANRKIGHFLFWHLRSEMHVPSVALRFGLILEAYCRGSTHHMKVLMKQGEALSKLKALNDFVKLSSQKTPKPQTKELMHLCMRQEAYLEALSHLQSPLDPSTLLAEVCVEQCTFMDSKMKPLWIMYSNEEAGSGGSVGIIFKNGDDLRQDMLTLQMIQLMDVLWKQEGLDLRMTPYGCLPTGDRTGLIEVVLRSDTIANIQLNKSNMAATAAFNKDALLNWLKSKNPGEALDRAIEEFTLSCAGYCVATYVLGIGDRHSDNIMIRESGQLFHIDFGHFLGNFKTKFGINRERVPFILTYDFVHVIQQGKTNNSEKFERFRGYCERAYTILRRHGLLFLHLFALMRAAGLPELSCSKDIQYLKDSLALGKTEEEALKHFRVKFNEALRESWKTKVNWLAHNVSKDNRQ
T4 sequence (P27986 whole entry partner): as the sequence (P27986 whole entry partner) above

For orientation: IC50 means the midpoint of a concentration-inhibition curve. In general, half-life refers to how long it takes for the measured level to halve. For orientation: CLint scaled means the capacity of the preparation to metabolise the compound, expressed as a volume cleared per time. A word on the AUC(0-t): it is exposure summed from dosing to a finite time, without extrapolation to infinity. Read a high AUC(0-t) as high exposure. Turning to `COc1ncc(-c2ccn3ncc(C#CC(C)O)c3n2)cc1NS(=O)(=O)c1ccc(F)cc1F` (centres unmarked) [Ex. 5, 2,4-difluoro-N-(5-(3-(3-hydroxybut-1-yn-1-yl)pyrazolo[1,5-a]pyrimidin-5-yl)-2-methoxypyridin-3-yl)benzenesulfonamide], the IC50 at PI3K p110β/p85α (h) was determined as 75 nM; at PI3K p110α/p85α (h), 3 nM; at PI3K (p120γ) (h) it was 6 nM; at PI3K (p110δ/p85α) (h), 1 nM; at mTOR (h) it was 7 nM. Besides, the half-life at 5 μM in series [1] (setting [4]) was 5.05 h; in series [3] it was 3.61 h. For the same compound, the CLint scaled at 5 μM in series [1] is 5.74 mL/min/kg; in series [3], 11.5 mL/min/kg. For the same compound, in series [2] (iv dose 2 mg/kg), the F turned out to be 96.20%. In series [2] (2 mg/kg), this compound yielded a Cl/F of 0.83 mL/min/kg. In series [2] (2 mg/kg), this compound had an AUC(0-t) of 35200 ng·h/mL. For the same compound, the half-life in series [2] (2 mg/kg) is 3 h. Moreover, the Vd in series [2] (2 mg/kg) was 0.2 L/kg.
On to `COc1ncc(-c2ccn3ncc(C#CC(C)(C)O)c3n2)cc1NS(=O)(=O)c1ccc(F)cc1F` [Ex. 6, 2,4-difluoro-N-(5-(3-(3-hydroxy-3-methylbut-1-yn-1-yl)pyrazolo[1,5-a]pyrimidin-5-yl)-2-methoxypyridin-3-yl)benzenesulfonamide], for which the T1/2 entry in series [1] (setting [4]) is reported as “∞”. The compound further registered a F in series [2] (iv dose 1 mg/kg) of 50.80%. Besides, in series [2] (1 mg/kg), the Cl/F turned out to be 0.33 mL/min/kg, the AUC(0-t) stood at 40900 ng·h/mL, the half-life was 11 h and the Vd was 0.24 L/kg. In series [3], the T1/2 entry is given as “∞”.
Consider `CC#Cc1cnn2ccc(-c3cnc(OC)c(NS(=O)(=O)c4ccc(F)cc4F)c3)nc12` [Ex. 7, 2,4-difluoro-N-(2-methoxy-5-(3-(prop-1-yn-1-yl)pyrazolo[1,5-a]pyrimidin-5-yl)pyridin-3-yl)benzenesulfonamide], for which the half-life at 5 μM in series [1] (setting [4]) was determined as 55.7 h. Moreover, in series [1], the intrinsic metabolic clearance (CLint scaled) at 5 μM is 0.52 mL/min/kg. The F in series [2] (iv dose 1 mg/kg) is reported as 80.10%. For the same compound, in series [2] (1 mg/kg), the Cl/F stood at 3.17 mL/min/kg, the AUC(0-t) worked out at 5330 ng·h/mL, the half-life was 3.94 h and the Vd came out at 0.63 L/kg. Further, in series [3], the half-life at 5 μM was 1.54 h and the CLint scaled at 5 μM is 26.9 mL/min/kg.
`COc1ncc(-c2ccn3ncc(C#CC(C)(C)O)c3c2)cc1NS(=O)(=O)c1ccc(F)cc1F` [Ex. 8, 2,4-difluoro-N-(5-(3-(3-hydroxy-3-methylbut-1-yn-1-yl)pyrazolo[1,5-a]pyridin-5-yl)-2-methoxypyridin-3-yl)benzenesulfonamide] had a half-life at 5 μM in series [1] (setting [4]) of 130 h. Also, the CLint scaled at 5 μM in series [1] was 0.22 mL/min/kg. The compound further showed a F in series [2] (iv dose 1 mg/kg) of 103.40%. In series [2] (1 mg/kg), the Cl/F was 0.33 mL/min/kg, the AUC(0-t) is 41800 ng·h/mL, the half-life was 10.8 h and the Vd was 0.28 L/kg. For the same compound, in series [3], the half-life at 5 μM came out at 21 h and the CLint scaled at 5 μM was 1.97 mL/min/kg.
Regarding `COc1ncc(-c2ccn3ncc(C#N)c3c2)cc1NS(=O)(=O)CC(F)(F)F` [Ex. 10, N-(5-(3-cyanopyrazolo[1,5-a]pyridin-5-yl)-2-methoxypyridin-3-yl)-2,2,2-trifluoroethanesulfonamide], in series [1] (setting [4]), the half-life at 5 μM was 20.4 h. Also, in series [1], the CLint scaled at 5 μM is 2.03 mL/min/kg. The compound further returned a F in series [2] (iv dose 1 mg/kg) of 112.95%. Moreover, in series [2] (1 mg/kg), the Cl/F was determined as 12.7 mL/min/kg, the AUC(0-t) amounted to 1240 ng·h/mL, the half-life was 2.74 h and the Vd came out at 1.72 L/kg. For the same compound, the T1/2 result in series [3] is recorded as “∞”.
